Experimental data as given in patent US20250002453A1, “PHARMACEUTICALLY ACCEPTABLE SALT OF ELIGLUSTAT AND CRYSTAL FORM THEREOF” (SPEROGENIX (SHANGHAI) MEDTECH CO., LTD., priority 2021, published 2025).

Legend:
[1] = as described in WO2011066352A1; cited from earlier work
[2] = plasma concentration of eliglustat 500 ng/ml; cited from earlier work
[3] = Dynamic solubility test (water, SGF, FaSSIF, FeSSIF; 37° C.; 1, 4 and 24 hours); assay type: physicochemical; details: 37° C.; for FC: Crystalline form transformation: XRPD of residual solid
Protocol: 0.2 g sodium chloride and 0.1 g Triton X-100 are weighted into a 100 mL volumetric flask. Pure water is added for dissolution, stirred until the solid is completely dissolved, about 1.632 mL hydrochloric acid (1M) is added, and the pH is adjusted to 1.8 with 1M hydrochloric acid or 1M sodium hydroxide, and finally it is diluted to volume with pure water.
0.34 g sodium dihydrogen phosphate (NaH2PO4, anhydrous), 0.042 g sodium hydroxide, and 0.62 g sodium chloride are weighted respectively into a 100 mL volumetric flask, about 48 mL pure water is added for dissolution, the pH is adjusted to 6.5 with 1M hydrochloric acid or 1M sodium hydroxide, and finally it is diluted to volume with pure water to obtain a stock solution. A 50-mL volumetric flask is taken. 0.11 g of SIF powder is added, and dissolved with the above stock solution, then diluted to volume. The powder is completely dissolve by ultrasound.
(§1) The purity test, dynamic solubility and stability test in the experiment are completed by Agilent 1260 high performance liquid chromatography. The salt-forming molar ratio test of ions is completed by ion chromatography test.
The dynamic solubility of crystalline form B/crystalline form C of 1,5-naphthalene disulfonate, crystalline form A of oxalate, crystalline form A of tartrate and free crystalline form A in water and three biological solvents were evaluated.
After sampling at each time point, the samples were centrifugally filtered (0.45 μm PTFE filter head), the free salt concentration and pH value in the filtrate were measured, and the solid samples after centrifugation were tested for XRPD.

[4] = Evaluation of hygroscopicity by Dynamic Vapor Sorption (DVS); assay type: physicochemical; details: for Hygroscopic weight gain at 25° C./80% RH / hygroscopic weight gain at 25° C./80% RH: DVS; for Transformation of crystalline form: after DVS test
Protocol: Dynamic Vapor Sorption (DVS) profiles are collected on the DVS Intrinsic of SMS (Surface Measurement Systems). Relative humidity at 25° C. is corrected with the deliquescent points of LiCl, Mg(NO3)2 and KCl.
The hygroscopicity of crystalline form B/crystalline form C of 1,5-naphthalene disulfonate, crystalline form A of oxalate, crystalline form A of tartrate and free crystalline form A were evaluated by DVS.

[5] = Solid state stability assessment (XRPD and HPLC after exposure at 25° C./60% RH and 40° C./75% RH); assay type: physicochemical
Protocol: XRPD patterns are collected on an X-ray powder diffraction analyzer produced by PANalytacal, and Table 2 lists the XRPD parameters.
as §1
After leaving the crystalline form C of 1,5-naphthalene disulfonate in the exposure evaporation at 25° C./60% RH and 40° C./75% RH for 1 week, […] and 4 weeks. The physical and chemical stability of the sample was tested by XRPD and HPLC, and the stability data of crystalline form A of tartrate and free crystalline form A at 1 week, 2 weeks and 4 weeks were used as a reference. At the same time, the stability of crystalline form B of 1,5-naphthalene disulfonate and crystalline form A of oxalate was tested under the conditions of 25° C./60% RH and 40° C./75% RH for 1 week.

[6] = Deliquescence / moisture uptake observed under room humidity or during XRPD testing; assay type: physicochemical; details: under room humidity conditions
Protocol: Free crystalline form A and 0.5 equivalent of L-malic acid were suspended and stirred in EtOAc for 1 day at room temperature to obtain the sample. The solid was separated by centrifugation and dried under vacuum to obtain crystalline form A of malate.
Free crystalline form A and 0.5 equivalent of L-malic acid were suspended and stirred in IPAc/n-heptane (1:5, v:v) for 1 day at room temperature and 2 days at 40° C., and then the solid was separated by centrifugation. Upon vacuum drying, crystalline form B of malate was obtained.

[7] = left exposed for 4 weeks at 25° C./60% RH and 40° C./75% RH
[8] = 1 week of exposure at 25° C./60% RH and 40° C./75% RH

SMILES	S: Solubility (free concentration) ([3]; FaSSIF, 1 hr) [µg/mL]	pH (of filtrate) ([3]; FaSSIF, 1 hr)	S: Solubility (free concentration) ([3]; FaSSIF, 4 hrs) [µg/mL]	pH (of filtrate) ([3]; FaSSIF, 4 hrs)	S: Solubility (free concentration) ([3]; FaSSIF, 12 hrs) [µg/mL]	pH (of filtrate) ([3]; FaSSIF, 12 hrs)	S: Solubility (free concentration) ([3]; H2O, 1 hr) [µg/mL]	pH (of filtrate) ([3]; H2O, 1 hr)	FC: Crystalline form transformation ([3]; H2O, 1 hr)	S: Solubility (free concentration) ([3]; H2O, 4 hrs) [µg/mL]	pH (of filtrate) ([3]; H2O, 4 hrs)	FC: Crystalline form transformation ([3]; H2O, 4 hrs)	S: Solubility (free concentration) ([3]; H2O, 12 hrs) [µg/mL]	pH (of filtrate) ([3]; H2O, 12 hrs)	FC: Crystalline form transformation ([3]; H2O, 12 hrs)	S: Solubility (free concentration) ([3]; SGF, 1 hr) [µg/mL]	pH (of filtrate) ([3]; SGF, 1 hr)	S: Solubility (free concentration) ([3]; SGF, 4 hrs) [µg/mL]	pH (of filtrate) ([3]; SGF, 4 hrs)	S: Solubility (free concentration) ([3]; SGF, 12 hrs) [µg/mL]	further results
CCCCCCCC(=O)N[C@H](CN1CCCC1)[C@H](O)c1ccc2c(c1)OCCO2.Cl [hydrochloride salt]																					hygroscopicity (in words) [1]: too hygroscopic for formulation
CCCCCCCC(=O)N[C@H](CN1CCCC1)[C@H](O)c1ccc2c(c1)OCCO2 [eliglustat]																					predicted mean increase in PR interval [2]: 22 (26) milliseconds; predicted mean increase in QRS interval [2]: 7 (10) milliseconds; predicted mean increase in QTcF interval [2]: 13 (19) milliseconds
CCCCCCCC(=O)NC(CN1CCCC1)C(O)c1ccc2c(c1)OCCO2.O=C(O)C(O)C(O)C(=O)O (stereo not drawn) [1:1 tartrate salt]																					hygroscopicity (in words) [1]: too hygroscopic for formulation
CCCCCCCC(=O)N[C@H](CN1CCCC1)[C@H](O)c1ccc2c(c1)OCCO2.CCCCCCCC(=O)N[C@H](CN1CCCC1)[C@H](O)c1ccc2c(c1)OCCO2.O.O.O=S(=O)(O)c1cccc2c(S(=O)(=O)O)cccc12	2900	6.48	2800	6.48	3000	6.49	2000	7.39	No	1900	7.33	No	2000	7.45	No	2600	1.80	2400	1.88	2600	FC: Crystalline form transformation ([3]; FaSSIF, 1 hr): No; FC: Crystalline form transformation ([3]; FaSSIF, 4 hrs): No; FC: Crystalline form transformation ([3]; FaSSIF, 12 hrs): No; FC: Crystalline form transformation ([3]; SGF, 1 hr): No; FC: Crystalline form transformation ([3]; SGF, 4 hrs): No; pH (of filtrate) ([3]; SGF, 12 hrs): 1.89; FC: Crystalline form transformation ([3]; SGF, 12 hrs): No; Hygroscopic weight gain at 25° C./80% RH [4]: 0.33%; hygroscopic weight gain at 25° C./80% RH [4]: 0.33 wt %; Transformation of crystalline form [4]: No change; Transformation of crystalline form ([4]; listed as crystalline form C of 1,5-naphthalene disulfonate): no change in crystalline form; change in crystalline form (XRPD) [5, 7]: no change in crystalline form; decrease in HPLC purity [5, 7]: no change in crystalline form or decrease in HPLC purity was observed
CCCCCCCC(=O)N[C@H](CN1CCCC1)[C@H](O)c1ccc2c(c1)OCCO2.CCCCCCCC(=O)N[C@H](CN1CCCC1)[C@H](O)c1ccc2c(c1)OCCO2.O=C(O)C(=O)O [Crystalline form A of oxalate]	≥8100	6.52	≥8200	6.48	≥8100	6.47	6800	7.07	No	7800	7.51	No	8000	7.30	No	≥8400	2.19	≥8500	2.17	≥8200	pH (of filtrate) ([3]; SGF, 12 hrs): 2.05; Hygroscopic weight gain at 25° C./80% RH [4]: 7.64%; hygroscopic weight gain at 25° C./80% RH [4]: 7.64 wt %; Transformation of crystalline form [4]: No change; Transformation of crystalline form ([4]; listed as crystalline form A of oxalate): no change in crystalline form; weight loss (in words) ([4]; humidity lower than 10% RH): Significant weight loss; decrease in HPLC purity [5, 8]: no decrease in HPLC purity was observed
CCCCCCCC(=O)NC(CN1CCCC1)C(O)c1ccc2c(c1)OCCO2.O=C(O)CC(O)C(=O)O (stereo not drawn) [Crystalline form A of malate]																					deliquescence / moisture absorption [6]: deliquesced significantly
CCCCCCCC(=O)N[C@H](CN1CCCC1)[C@H](O)c1ccc2c(c1)OCCO2.CCCCCCCC(=O)N[C@H](CN1CCCC1)[C@H](O)c1ccc2c(c1)OCCO2.O=S(=O)(O)c1cccc2c(S(=O)(=O)O)cccc12	2700	6.52	2700	6.51	2600	6.52	1900	7.67	Yes	2000	7.67	Yes	2000	7.75	Yes	2700	1.84	2500	1.75	2300	FC: Crystalline form transformation ([3]; FaSSIF, 1 hr): Yes; FC: Crystalline form transformation ([3]; FaSSIF, 4 hrs): Yes; FC: Crystalline form transformation ([3]; FaSSIF, 12 hrs): Yes; FC: Crystalline form transformation ([3]; SGF, 1 hr): Yes; FC: Crystalline form transformation ([3]; SGF, 4 hrs): Yes; pH (of filtrate) ([3]; SGF, 12 hrs): 1.77; FC: Crystalline form transformation ([3]; SGF, 12 hrs): Yes; Hygroscopic weight gain at 25° C./80% RH [4]: 0.59%; Transformation of crystalline form [4]: Change to crystalline; Transformation of crystalline form ([4]; listed as crystalline form B of 1,5-naphthalene disulfonate): changed to crystalline form C; hygroscopic weight gain (in words) ([4]; humidity higher than 80% RH at 25° C.): significant hygroscopic weight gain; decrease in HPLC purity [5, 8]: no decrease in HPLC purity was observed; change in crystalline form (XRPD) ([5]; left exposed for a week at 40° C./75% RH): partially transformed into the crystalline form C
